The results in this text go back to patent US7396858B2, “Biguanide derivative and therapeutic agent for diabetes containing the same” (Chugai Seiyaku Kabushiki Kaisha, priority 2002, dated 2008).

This data set concerns female mice (C57BLKS/J-m +/+ Lepr<db> (db/db)). The data set can be described thus: Oral glucose tolerance test (blood glucose and blood lactic acid levels). Format: in vivo. Particulars: subcutaneous, AUC up to 2 hours vs solvent group; for Blood glucose reduction rate (%): 30 min before oral glucose 3 g/kg; for Blood lactic acid level increase rate (%): oral glucose tolerance test. On the procedure:
Measurement of blood glucose reduction rate and blood lactic acid levels by the aforementioned oral glucose tolerance test may be carried out by a publicly known method, and preferred methods are described below. Specifically, 11- to 17-week-old female mice (C57BLKS/J-m +/+ Lepr (db/db)) are starved for 18-24 hours. A group of five or six mice is used for the test. Blood is sampled from the tail for measurement of the blood glucose levels and blood lactic acid levels before treatment as controls. After sampling, the biguanide derivative is dissolved in phosphate-buffered physiological saline at a suitable concentration and subcutaneously administered at a dose of 5 ml/kg. As controls are prepared mice administered only the solvent. Glucose is then administered orally at a dose of 3 g/6 ml/kg at 30 minutes after administration of the compound or solvent as an oral glucose tolerance test. Blood is sampled from the tail for measurement of the blood glucose levels and the blood lactic acid levels 30 minutes, 1 hour and 2 hours after glucose administration. The blood glucose levels are measured using a New Blood Sugar Test (Roche Diagnostics) or a Glucose CII-Test Wako (Wako Pure Chemical Industries, Ltd.). The blood lactic acid levels are measured using an “Asuka Sigma” (Sigma Diagnostics).
The blood glucose reduction rate and the blood lactic acid level increase rate are calculated according to the following formulas. Blood glucose reduction rate (%)=[(AUC for blood glucose increase level of solvent-administered group−AUC for blood glucose increase level of compound-administered group)/AUC for blood glucose increase level of solvent-administered group]×100
The blood lactic acid level increase rate is calculated according to the following formula. Blood lactic acid level increase rate (%)=[(AUC for blood lactic acid level of compound-administered group−AUC for blood lactic acid level of solvent-administered group)/AUC for blood lactic acid level of solvent-administered group]×100
Eleven- to seventeen-week-old female mice (C57BLKS/J-m +/+ Lepr (db/db)) were starved for 18-24 hours, and a group of six mice was used for the test. Blood was sampled from the tail for measurement of the blood glucose levels and blood lactic acid levels before treatment. […] As a control, the solvent alone was subcutaneously administered to mice similarly.
Glucose was then administered orally at a dose of 3 g/6 ml/kg at 30 minutes after administration of the compound or solvent as an oral glucose tolerance test. Blood was sampled from the tail for measurement of the blood glucose levels and blood lactic acid levels 30 minutes, 1 hour and 2 hours after glucose administration. The blood glucose levels were measured using a New Blood Sugar Test (Roche Diagnostics) or a Glucose CII-Test Wako (Wako Pure Chemical Industries, Ltd.). The blood lactic acid levels were measured using an “Asuka Sigma” (Sigma Diagnostics).

Several values for one entry are separate records, joined by “and”; a condition that tells them apart may be missing. Equal entries are not always repeated.

In the case of `N=C(N)NC(=N)NCc1ccoc1` [1-[(Furan-3-yl)methyl]biguanide, 1-[(furan-3-yl)methyl]biguanide], the “Blood glucose reduction rate (%)” value (dosage 50 mg/kg) came out at 40.3%. Moreover, where the note is “dosage 75 mg/kg”, the “Blood glucose reduction rate (%)” value is 65.5% and the “Blood lactic acid level increase rate (%)” value is recorded as 9.7%.
For the compound `CN(C)C(=N)N=C(N)N` [Metformin], the “Blood glucose reduction rate (%)” value (dosage 200 mg/kg) was 56.0% and 41.8%.
`[H]/N=C(/N)N/C(=N/[H])NCCc1ccccc1` [Phenformin]: under “dosage 37.5 mg/kg”, the “Blood glucose reduction rate (%)” value was 39.5% and 72.7%; the “Blood lactic acid level increase rate (%)” value is 46.4% and 83.1%. Moreover, for the setting “dosage 75 mg/kg”, the “Blood glucose reduction rate (%)” value was 64.5% and 78.0% and 60.8% and 61.4% and 72.8% and 69.6%; the “Blood lactic acid level increase rate (%)” value was 93.6% and 151.6% and 94.7% and 120.8% and 141.1% and 114.8%.
